Target: T1, PhXyl (extracellular β-xylosidase) (Pseudozyma hubeiensis, UniProt R9NZV8)
T1 construct: gene PHSY_001848; native extracellular enzyme purified from culture supernatant
T1 sequence (R9NZV8 24-873): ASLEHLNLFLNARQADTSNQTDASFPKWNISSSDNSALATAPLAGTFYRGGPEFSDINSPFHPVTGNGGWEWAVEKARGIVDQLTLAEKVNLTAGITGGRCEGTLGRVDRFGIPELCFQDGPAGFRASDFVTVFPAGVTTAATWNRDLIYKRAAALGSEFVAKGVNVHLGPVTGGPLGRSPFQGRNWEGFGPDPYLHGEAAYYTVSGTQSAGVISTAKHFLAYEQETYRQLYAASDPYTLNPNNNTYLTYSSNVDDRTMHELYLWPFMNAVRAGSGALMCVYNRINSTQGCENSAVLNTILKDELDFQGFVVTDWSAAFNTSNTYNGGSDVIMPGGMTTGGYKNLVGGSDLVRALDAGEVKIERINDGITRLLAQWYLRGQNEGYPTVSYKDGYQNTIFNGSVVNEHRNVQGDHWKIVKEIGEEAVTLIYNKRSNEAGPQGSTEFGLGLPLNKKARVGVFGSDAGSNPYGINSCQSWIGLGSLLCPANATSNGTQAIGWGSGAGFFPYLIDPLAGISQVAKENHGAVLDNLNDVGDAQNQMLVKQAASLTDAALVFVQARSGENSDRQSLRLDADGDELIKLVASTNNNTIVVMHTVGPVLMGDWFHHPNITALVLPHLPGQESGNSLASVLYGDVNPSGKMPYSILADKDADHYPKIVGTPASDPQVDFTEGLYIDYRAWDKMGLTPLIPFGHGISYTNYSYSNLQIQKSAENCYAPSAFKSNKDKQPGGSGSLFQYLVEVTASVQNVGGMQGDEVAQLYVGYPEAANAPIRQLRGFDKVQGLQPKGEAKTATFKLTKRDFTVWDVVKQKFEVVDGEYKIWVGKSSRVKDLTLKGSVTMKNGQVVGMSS
Assay: inhibition of pNPX hydrolysis
Assay type: biochemical
Details: read-out: % activity at 75 mM

## OC1OC[C@@H](O)[C@H](O)[C@H]1O (stereo partly shown) [xylose]
  activity at 75000 µM: 50%

From paper PMC5023640, “Purification and characterization of an extracellular β-xylosidase from Pseudozyma hubeiensis NCIM 3574 (PhXyl), an unexplored yeast” (AMB Express, 2016)
